The values that follow come from patent EP4775583A1, “COMPOUND OR SALT THEREOF, METHOD FOR PRODUCING SAME, PHARMACEUTICAL COMPOSITION CONTAINING COMPOUND OR SALT THEREOF, AND METHOD FOR PRODUCING SAME” (Celaid Therapeutics Inc., priority 2023, dated 2025).

“Also recorded” adds a separate entry of the source. Structures can show the parent of a compound that is named as a salt.

The test system of test [1] is mouse neuroblastoma N2a cells. Description: Neurite outgrowth assay. The format is cell-based. Conditions: for neurite outgrowth / neurite outgrowth-promoting activity, comparison between compounds: 0.2 µM, 48 h treatment (Fig. 21(B)); for neurite outgrowth-promoting activity, comparison between compounds: structure-activity comparison; for dose-dependent neurite outgrowth activity: 0.02 - 2 µM, 48 h treatment (Fig. 21(C)). The method, then:
The Mouse Neuro-2a (N2a) cell line was obtained from the Japanese Collection of Research Bioresources (JCRB) Cell Bank. The N2a cells were plated at a concentration of 1 × 10^4 cells/mL in Dulbecco's modified Eagle's medium (hereinafter also referred to as DMEM) containing high glucose, 10% FBS, 100 U/mL penicillin, and 100 µg/mL streptomycin at 37 °C in a humidified atmosphere of 5% CO2.
For the neurite outgrowth assay, the medium was changed to DMEM supplemented with 2% FBS. After incubation with the test compounds, cell morphology was examined using a microscope (Olympus CKX41).
The differentiated cells were defined as those with at least one neurite that was longer than twice the diameter of the cell body. The results were expressed as the percentage of differentiated cells among the counted cells. These experiments were carried out in triplicate.

For test [2], the target named is T1, KDM5A (Mus musculus, UniProt Q3UXZ9).
T1 construct: Western Blot-Detection of KDM5A Levels in N2a Cells; endogenous in cells; host or cells: N2a (mouse neuroblastoma neuro-2a) cells
Description: Western blot detection of KDM5A levels (degradation). Type of test: cell-based. Conditions: N2a cells. The method, then: (§1) The N2a cells (5 × 10^5 cells/2 mL/dish) were treated for 24 h with the test compounds at the indicated concentrations in a 10% FBS-supplemented cell culture medium, and cells were collected and extracted with SDS sampling buffer. Protein concentrations of the lysates were determined using a BCA protein assay. Equivalent amounts of protein from each lysate were resolved in 5% to 20% SDS-polyacrylamide gels, and bands were transferred onto PVDF membranes (Millipore, #IPVH00010 for β-actin detection, #ISEQ10100 for H3, H3K4me3, and H3K27Ac detection). After blocking with TBS-T containing 5% skimmed milk, the transblotted membranes were probed with primary antibodies. The following antibodies were used as the primary antibodies: rabbit monoclonal KDM5A antibody (CST #3876, 1 : 1000 dilution); mouse monoclonal β-actin antibody (Santa Cruz, #sc-47778, 1 : 2000 dilution); rabbit polyclonal H3K4me3 antibody (Abcam, #ab8580, 1 : 5000 dilution); rabbit polyclonal H3K27Ac antibody (Abcam, #ab4729, 1 : 1000 dilution); or rabbit polyclonal histone H3 antibody (Abcam, #ab1791, 1 : 200000 dilution). […]

For the next test, the system named is H3K27Ac. Nature of the test: Western blot detection of H3K27Ac levels. The format is cell-based, Mouse. Conditions: N2a cells, 24 h treatment (Fig. 26). Here is the method:
as §1
Background: Immunoblotting shows a protein as a band on a membrane.

In a further test the target is HDAC1 (Homo sapiens, UniProt Q13547). Description: HDAC1 inhibitory activity, in vitro assay. Conditions: in vitro assay (Fig. 27). The format is biochemical.
Test [3] concerns the target KDM5A (Homo sapiens, UniProt P29375). Description: KDM5A inhibitory activity, in vitro assay. Type of test: biochemical. Conditions: in vitro assay (Fig. 27).
A further test concerns H3K4me3. Description: Western blot detection of H3K4me3 levels. Type of test: cell-based, Mouse. The following applies: N2a cells, 24 h treatment (Fig. 26). Here is the method:
as §1

T1 sequence (Q3UXZ9 whole entry): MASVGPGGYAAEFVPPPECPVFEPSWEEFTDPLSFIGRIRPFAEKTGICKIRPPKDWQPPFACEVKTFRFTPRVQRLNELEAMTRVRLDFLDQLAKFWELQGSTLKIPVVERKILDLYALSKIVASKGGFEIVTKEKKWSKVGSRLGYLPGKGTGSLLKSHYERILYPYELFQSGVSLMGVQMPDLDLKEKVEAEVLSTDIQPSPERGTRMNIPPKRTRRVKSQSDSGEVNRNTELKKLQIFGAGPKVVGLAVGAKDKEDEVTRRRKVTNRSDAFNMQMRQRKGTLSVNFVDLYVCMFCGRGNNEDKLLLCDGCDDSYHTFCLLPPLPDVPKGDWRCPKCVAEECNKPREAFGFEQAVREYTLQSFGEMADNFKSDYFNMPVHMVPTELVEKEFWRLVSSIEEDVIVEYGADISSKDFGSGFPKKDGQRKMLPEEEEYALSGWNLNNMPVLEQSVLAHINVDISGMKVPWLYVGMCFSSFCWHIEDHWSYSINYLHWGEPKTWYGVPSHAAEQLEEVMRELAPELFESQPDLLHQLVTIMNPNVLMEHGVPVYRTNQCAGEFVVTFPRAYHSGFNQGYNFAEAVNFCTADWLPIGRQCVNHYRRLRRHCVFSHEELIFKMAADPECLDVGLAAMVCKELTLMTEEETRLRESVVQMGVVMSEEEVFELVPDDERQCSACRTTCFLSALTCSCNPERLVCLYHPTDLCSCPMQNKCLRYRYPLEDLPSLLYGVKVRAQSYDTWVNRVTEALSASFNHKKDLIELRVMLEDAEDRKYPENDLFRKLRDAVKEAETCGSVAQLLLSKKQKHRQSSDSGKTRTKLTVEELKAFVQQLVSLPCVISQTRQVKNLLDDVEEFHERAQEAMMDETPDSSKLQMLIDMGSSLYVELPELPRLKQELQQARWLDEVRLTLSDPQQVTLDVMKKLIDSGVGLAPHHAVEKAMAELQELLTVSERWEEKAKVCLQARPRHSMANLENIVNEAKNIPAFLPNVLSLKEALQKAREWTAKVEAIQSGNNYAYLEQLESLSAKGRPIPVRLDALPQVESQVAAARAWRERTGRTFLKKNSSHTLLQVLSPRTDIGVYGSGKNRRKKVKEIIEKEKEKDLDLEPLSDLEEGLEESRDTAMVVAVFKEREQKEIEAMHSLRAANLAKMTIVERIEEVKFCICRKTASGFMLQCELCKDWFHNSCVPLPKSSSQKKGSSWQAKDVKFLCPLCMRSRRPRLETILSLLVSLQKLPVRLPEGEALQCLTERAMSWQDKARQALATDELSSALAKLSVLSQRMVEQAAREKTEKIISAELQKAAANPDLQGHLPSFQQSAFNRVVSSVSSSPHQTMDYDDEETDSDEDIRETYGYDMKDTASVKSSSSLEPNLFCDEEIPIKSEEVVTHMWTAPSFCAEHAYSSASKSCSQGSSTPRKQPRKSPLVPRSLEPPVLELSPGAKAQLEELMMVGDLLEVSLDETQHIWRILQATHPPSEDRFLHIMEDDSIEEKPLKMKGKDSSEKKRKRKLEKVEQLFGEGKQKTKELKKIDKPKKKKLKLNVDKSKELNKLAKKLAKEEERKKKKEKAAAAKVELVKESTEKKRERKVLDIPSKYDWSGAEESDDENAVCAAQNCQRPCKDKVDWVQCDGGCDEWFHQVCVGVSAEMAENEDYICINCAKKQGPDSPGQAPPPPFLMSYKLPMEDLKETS
HDAC1, sequence (Q13547 whole entry, species assumed): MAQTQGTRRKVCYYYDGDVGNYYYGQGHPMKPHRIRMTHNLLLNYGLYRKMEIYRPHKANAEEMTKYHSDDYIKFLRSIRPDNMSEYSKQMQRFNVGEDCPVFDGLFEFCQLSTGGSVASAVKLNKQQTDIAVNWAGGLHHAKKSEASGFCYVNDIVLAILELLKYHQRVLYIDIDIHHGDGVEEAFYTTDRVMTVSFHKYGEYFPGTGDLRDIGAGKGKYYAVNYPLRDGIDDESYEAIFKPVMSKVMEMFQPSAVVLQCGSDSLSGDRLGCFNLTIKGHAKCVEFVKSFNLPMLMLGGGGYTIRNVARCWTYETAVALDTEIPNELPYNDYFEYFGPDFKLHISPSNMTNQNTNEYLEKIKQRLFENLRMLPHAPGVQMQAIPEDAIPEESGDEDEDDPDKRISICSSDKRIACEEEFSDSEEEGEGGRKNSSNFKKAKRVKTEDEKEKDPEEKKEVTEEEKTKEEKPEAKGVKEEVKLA
KDM5A (Homo sapiens, UniProt P29375), sequence (P29375 whole entry, species assumed): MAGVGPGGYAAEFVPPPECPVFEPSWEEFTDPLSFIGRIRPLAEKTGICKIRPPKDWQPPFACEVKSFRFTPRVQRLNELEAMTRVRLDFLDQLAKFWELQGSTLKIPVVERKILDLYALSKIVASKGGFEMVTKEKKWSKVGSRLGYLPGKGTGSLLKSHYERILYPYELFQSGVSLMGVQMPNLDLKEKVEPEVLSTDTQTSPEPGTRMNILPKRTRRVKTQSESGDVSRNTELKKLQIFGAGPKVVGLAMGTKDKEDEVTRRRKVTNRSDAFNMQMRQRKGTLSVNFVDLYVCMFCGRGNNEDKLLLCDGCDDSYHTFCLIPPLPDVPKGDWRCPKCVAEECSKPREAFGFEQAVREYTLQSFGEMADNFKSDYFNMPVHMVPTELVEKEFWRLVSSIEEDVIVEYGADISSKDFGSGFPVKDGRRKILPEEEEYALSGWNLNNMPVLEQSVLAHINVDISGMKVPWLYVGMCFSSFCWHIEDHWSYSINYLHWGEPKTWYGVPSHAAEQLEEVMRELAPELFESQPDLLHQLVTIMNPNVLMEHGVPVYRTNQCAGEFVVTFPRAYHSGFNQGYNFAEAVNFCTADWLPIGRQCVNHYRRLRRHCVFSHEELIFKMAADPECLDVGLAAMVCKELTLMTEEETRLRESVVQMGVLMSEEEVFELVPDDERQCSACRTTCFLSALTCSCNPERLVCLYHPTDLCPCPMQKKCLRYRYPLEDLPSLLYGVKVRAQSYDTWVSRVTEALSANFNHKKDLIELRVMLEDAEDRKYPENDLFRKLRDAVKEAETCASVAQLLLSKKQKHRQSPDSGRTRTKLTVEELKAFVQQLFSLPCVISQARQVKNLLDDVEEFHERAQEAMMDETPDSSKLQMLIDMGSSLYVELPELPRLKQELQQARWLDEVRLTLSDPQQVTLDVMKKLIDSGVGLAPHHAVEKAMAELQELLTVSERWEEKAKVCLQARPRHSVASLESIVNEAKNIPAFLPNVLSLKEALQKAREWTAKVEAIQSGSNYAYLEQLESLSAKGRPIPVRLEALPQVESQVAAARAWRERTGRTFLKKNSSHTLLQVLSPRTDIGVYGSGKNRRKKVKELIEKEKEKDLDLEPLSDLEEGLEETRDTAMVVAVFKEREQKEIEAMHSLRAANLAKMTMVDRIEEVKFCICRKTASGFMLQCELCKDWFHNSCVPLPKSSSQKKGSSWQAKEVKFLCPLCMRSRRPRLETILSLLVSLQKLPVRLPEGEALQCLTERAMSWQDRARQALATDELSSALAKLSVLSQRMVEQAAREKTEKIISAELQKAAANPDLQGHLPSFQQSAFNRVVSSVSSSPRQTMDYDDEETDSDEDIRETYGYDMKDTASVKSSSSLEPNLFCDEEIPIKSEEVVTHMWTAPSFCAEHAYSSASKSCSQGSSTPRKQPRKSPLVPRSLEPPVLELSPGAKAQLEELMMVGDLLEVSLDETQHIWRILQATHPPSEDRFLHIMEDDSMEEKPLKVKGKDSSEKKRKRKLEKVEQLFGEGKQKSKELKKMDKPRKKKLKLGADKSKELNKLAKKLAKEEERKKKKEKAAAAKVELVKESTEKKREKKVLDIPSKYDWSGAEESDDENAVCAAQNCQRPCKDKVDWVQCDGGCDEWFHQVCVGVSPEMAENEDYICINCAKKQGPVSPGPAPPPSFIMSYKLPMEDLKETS

As to `CC(C)c1c(-c2ccc(CCN(C)CCCCCCC(=O)NCCOCCOCCOc3cccc4c3C(=O)N(C3CCC(=O)NC3=O)C4=O)cc2)[nH]c2c(C#N)cnn2c1=O` (centres unmarked) [Compound 14a, hydrochloride], the neurite outgrowth entry in test [1] (N2a cells) is given as “promoted neurite outgrowth”.
For `CC(C)c1c(-c2ccc(CCN(C)CCCCCCCCCC(=O)NCCOCCOCCOc3cccc4c3C(=O)N(C3CCC(=O)NC3=O)C4=O)cc2)[nH]c2c(C#N)cnn2c1=O` (centres unmarked) [Compound 14b, 10-{[4-(3-Cyano-6-isopropyl-7-oxo-4,7-dihydropyrazolo[1,5-a]pyrimidin-5-yl)phenethyl](methyl)-amino}-N-{2-[2-(2,6-dioxopiperidin-3-yl)-1,3-dioxoindolin-4-yl]oxy}ethoxy}ethyl}decanamide Hydrochloride], in test [1] (N2a cells), the neurite outgrowth entry is on record as “promoted neurite outgrowth” and the “neurite outgrowth-promoting activity, comparison between compounds” value is “stronger neurite outgrowth-promoting activity than compound 14a”.
As to `CC(C)c1c(-c2ccc(CCN(C)CCCCCCc3ccc(C(=O)NCCOCCOCCOc4cccc5c4C(=O)N(C4CCC(=O)NC4=O)C5=O)cc3)cc2)[nH]c2c(C#N)cnn2c1=O` (centres unmarked) [Compound 20a], in test [1] (N2a cells), the neurite outgrowth entry was “promoted neurite outgrowth”.
For `CC(C)c1c(-c2ccc(CCN(C)CCCCCCc3ccc(C(=O)NCCCCCCOc4cccc5c4C(=O)N(C4CCC(=O)NC4=O)C5=O)cc3)cc2)[nH]c2c(C#N)cnn2c1=O` (centres unmarked) [Compound 23a, 4-(6-{[4-(3-cyano-6-isopropyl-7-oxo-4,7-dihydropyrazolo[1,5-a]pyrimidin-5-yl)phenethyl](methyl)amino}hexyl)-N-(6-{[2-(2,6-dioxopiperidin-3-yl) -1, 3 - dioxoindolin-4-yl]oxy}hexyl) benzamide hydrochloride], in test [1] (N2a cells), the neurite outgrowth result is recorded as “promoted neurite outgrowth”.
As for `CC(C)c1c(-c2ccc(CCN(C)CCCCCCc3cccc(C(=O)NCCCCCCOc4cccc5c4C(=O)N(C4CCC(=O)NC4=O)C5=O)c3)cc2)[nH]c2c(C#N)cnn2c1=O` (centres unmarked) [Compound 23b, 3-(6-{[4-(3-Cyano-6-isopropyl-7-oxo-4,7-dihydropyrazolo[1,5-a]pyrimidin-5-yl)phenethyl](methyl)-amino}hexyl)-N-(6-{[2-(2,6-dioxopiperidin-3-yl)-1,3-dioxoindolin-4-yl]oxy}hexyl)benzamide Hydrochloride], the “KDM5A levels on co-treatment with proteasome inhibitor MG-132” value at KDM5A [2] (24 h co-treatment with MG-132 (Fig. 25(C), 25(D))) is on record as “disturbed by the proteasome inhibitor MG-132”. Moreover, the KDM5A levels result at KDM5A [2] (24 h treatment (Fig. 25(A), 25(B))) is “decreased KDM5A levels in a dose-dependent manner”. Also, in test [1] (N2a cells (Fig. 21(B))), the “neurite outgrowth-promoting activity, overall assessment” value is given as “remarkable neurite outgrowth-promoting activity”. Also, the “time-dependent neurite outgrowth activity (number of neurite cells)” value in test [1] (N2a cells, 0.02 µM, 24, 48 and 72 hours (Fig. 21(D))) is reported as “increased the number of neurite cells in a time-dependent manner”. In test [1] (N2a cells), the neurite outgrowth entry is recorded as “promoted neurite outgrowth” and the “dose-dependent neurite outgrowth activity” value is recorded as “promoted neurite outgrowth”. Also, in test [1] (N2a cells, Hydrochloride), the “neurite outgrowth-promoting activity, comparison between compounds” value was “superior to those of the para-substituent compounds 20a and 23a; also recorded: slightly better than that of the polyethylene linker compound 20b”. Also, the H3K27Ac levels result in the test with H3K27Ac was “upregulated H3K27Ac levels”. In addition, on HDAC1, the HDAC1 inhibitory activity entry is “without affecting HDAC1”. At KDM5A [3], the KDM5A inhibitory activity result was “strongly inhibited KDM5A”. Moreover, the H3K4me3 levels entry with H3K4me3 is listed as “dose-dependent accumulation of H3K4me3 levels”.
`O=C1CCC(N2C(=O)c3ccccc3C2=O)C(=O)N1` (centres unmarked) [Compound 26, thalidomide, reference compound]: the “dose-dependent neurite outgrowth activity” value in test [1] (N2a cells) is “did not show strong neurite outgrowth activity relative to Compounds 20b and 23b”.
